Source: patent US20210395210A1, “INHIBITION OF BACTERIAL CHAPERONIN SYSTEMS” (THE TRUSTEES OF INDIANA UNIVERSITY, priority 2018, published 2021)
Where two headings read alike, the source gives them in different places. Values belong to the molecule of their own block, whether it stands above or below them.

Key:
human HSP60/10 = molecular target: T1, human HSP60/10 (Homo sapiens, UniProt P10809); test: HSP60/10-mediated dMDH refolding assay; format: biochemical
T1 construct: octa-Histidine tag (TEV-cleavable) (N, cleaved yes); made in house; host or cells: HSP60 in E. coli Rosetta 2 (DE3); HSP10 in Rosetta 2 (DE3) pLysS
T1 sequence (P10809 27-573): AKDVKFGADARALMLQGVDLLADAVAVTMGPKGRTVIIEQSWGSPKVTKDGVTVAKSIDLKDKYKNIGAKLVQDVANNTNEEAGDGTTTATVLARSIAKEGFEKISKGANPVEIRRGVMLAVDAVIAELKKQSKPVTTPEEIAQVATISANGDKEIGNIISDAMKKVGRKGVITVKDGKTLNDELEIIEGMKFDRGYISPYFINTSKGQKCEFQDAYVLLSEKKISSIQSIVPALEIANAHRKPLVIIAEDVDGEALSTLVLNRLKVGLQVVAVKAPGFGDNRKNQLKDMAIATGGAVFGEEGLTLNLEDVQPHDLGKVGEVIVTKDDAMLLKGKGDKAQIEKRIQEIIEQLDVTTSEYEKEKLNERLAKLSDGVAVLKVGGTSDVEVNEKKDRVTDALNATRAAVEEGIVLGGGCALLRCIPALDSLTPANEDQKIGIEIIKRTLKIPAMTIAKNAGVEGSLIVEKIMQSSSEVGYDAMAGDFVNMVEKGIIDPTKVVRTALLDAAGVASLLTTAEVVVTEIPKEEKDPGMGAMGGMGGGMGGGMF
Experimental: Reagent preparation: For these assays, four primary reagent stocks were prepared: 1) GroEUES-dMDH or HSP60/10-dMDH binary complex stock; 2) ATP initiation stock; 3) EDTA quench stock; 4) MDH enzymatic assay stock. Denatured MDH (dMDH) was prepared by 2-fold dilution of MDH (5 mg/ml, soluble pig heart MDH from Roche, product #10127248001) with denaturant buffer (7 M guanidine-HCl, 200 mM Tris, pH 7.4, and 50 mM DTT). MDH was completely denatured by incubating at room temperature for 45 min. The binary complex solutions were prepared by slowly adding the dMDH stock to a stirring stock with GroEL (or HSP60) in folding buffer (50 mM Tris-HCl, pH 7.4, 50 mM KCl, 10 mM MgCl2, and 1 mM DTT), followed by addition of GroES (or HSP10). The binary complex stocks were prepared immediately prior to dispensing into the assay plates and had final protein concentrations of 83.3 nM GroEL (Mr 800 kDa) or HSP60 (Mr 400 kDa), 100 nM GroES or HSP10 (Mr 70 kDa), and 20 nM dMDH in folding buffer. For the ATP initiation stock, ATP solid was diluted into folding buffer to a final concentration of 2.5 mM. Quench solution contained 600 mM EDTA (pH 8.0). The MDH enzymatic assay stock consisted of 20 mM sodium mesoxalate and 2.4 mM NADH in reaction buffer (50 mM Tris-HCl, pH 7.4, 50 mM KCl, and 1 mM DTT).
Assay Protocol: First, 30 μL aliquots of the GroEL/ES-dMDH or HSP60/10-dMDH binary complex stocks were dispensed into clear, 384-well polystyrene plates. […] The chaperonin-mediated refolding cycles were initiated by addition of 20 μL of ATP stock (reagent concentrations during refolding cycle: 50 nM GroEL or HSP60, 60 nM GroES or HSP10, 12 nM dMDH, 1 mM ATP, and compounds of 100 μM to 46 nM, 3-fold dilution series). The refolding reactions were incubated at 37° C. […] Next, the assay was quenched by addition of 10 μL of the EDTA to final concentration of 100 mM. […] A340 nm measurements were recorded at 0.5 minutes (start point) and at successive time points until the amount of NADH consumed reached ˜90% (end point, generally between 20-35 minutes). The differences between the start and end point A340 values were used to calculate the % inhibition of the GroEL/ES or HSP60/10 machinery by the compounds. […] Results presented represent the averages of IC50 values obtained from at least quadriplicate (duplicate of duplicate) replicates.

[1] = system: Pseudomonas aeruginosa (ATCC 10145); test: Bacterial proliferation assay, P. aeruginosa; format: cell-based
Text: Bacterial Strains: Enterococcus faecium—(Orla-Jensen) Schleifer and Kilpper-Balz strain NCTC 7171 (ATCC 19434); Drug sensitive Staphylococcus aureus—Rosenbranch strain Seattle 1945 (ATCC 25923); Methicillin resistant S. aureus (MRSA)—Rosenbach strain HPV107 (ATCC BAA-44); Klebsiella Pneumonia—(Schroeter) Trevisan strain NCTC 9633 (ATCC 13883); Acinetobacter baumannii—Bouvet and Grimont strain 2208 (ATCC 19606); Pseudomonas aeruginosa—(Schroeter) Migula strain NCTC 10332 (ATCC 10145); Enterobacter cloacae—E. cloacae, subsp. cloacae (Jordan) Hormaeche and Edwards strain CDC 442-68 (ATCC 13047).
Growth Media: All bacteria were grown in Brain Heart Infusion (BHI) broth/agar (Becton, Dickinson and Company). All liquid cultures were grown in BHI media supplemented with 25 mg/L Ca^2+ and 12.5 mg/L Mg^2+ to mimic free physiological concentrations of these cations. A 10 mg/mL Ca^2+ stock solution was prepared by dissolving 3.68 g of CaCl2.2H2O in 100 mL of deionized water, and a 10 mg/mL Mg^2+ stock solution was prepared by dissolving 8.36 g of MgCl2.6H2O in 100 mL deionized water. Both stock solutions were filter-sterilized using 0.2 μm pore size cellulose-acetate filters. 2.5 mL of the sterile 10 mg/mL Ca^2+ stock and 1.25 mL of the sterile 10 mg/mL Mg^2+ stock solutions were added per 1 L of autoclaved BHI medium to obtain 25 mg/L Ca^2+ and 12.5 mg/L Mg^2+ ions, respectively.
General Assay Protocol: Stock bacterial cultures were streaked onto BHI agar plates and grown overnight at 37° C. Fresh aliquots of broth were inoculated with single bacterial colonies and the cultures were grown overnight at 37° C. with shaking (240 rpm) in cation adjusted BHI media. The following morning, the overnight cultures were sub-cultured (1:5 dilution) into fresh aliquots of cation adjusted BHI media and grown at 37° C. for 1-2 hours with shaking. After 2 h, cultures were diluted into fresh media to achieve final OD600 readings of 0.017. Aliquots of these diluted cultures (30 μL) were added to clear, flat-bottom, 384-well polystyrene plates that were stamped with 0.5 μL of test compounds in 20 μL media. […] Plates were sealed with “Breathe Easy” oxygen permeable membranes (Diversified Biotech) and left to incubate at 37° C. without shaking (stagnant assay). OD600 nm readings were taken at either 6-8 h (S. aureus, MRSA, K. pneumonia, E. cloacae, and P. aeruginosa) or 24 h (E. faecium and A. baumannii). A second set of baseline control plates were prepared analogously, but without any bacteria added, to correct for possible compound absorbance and/or precipitation. Plates were then read at 600 nm using a Molecular Devices SpectraMax Plus384 microplate reader. […] Results presented represent the averages of EC50 values obtained from at quadriplicate (duplicate of duplicate) replicates.

[2] = human HSP60/10-dMDH refolding assay, read-out: HSP60/10-dMDH Refolding IC50
[3] = log(IC50) ± standard deviation, human HSP60/10-dMDH refolding assay, read-out: HSP60/10-dMDH Refolding Assay log(IC50) (converted)
[4] = ATCC10145, OD600 at 6-8 h, read-out: Bacterial Proliferation EC50 P. aeruginosa
[5] = ATCC10145, log of EC50 (μM scale), with standard deviation, read-out: log(EC50) Bacterial Proliferation Assay P. aeruginosa (converted)

SMILES: COc1ccccc1C(=O)Nc1ccccc1 [Compound 44, 2-Methoxy-N-phenylbenzamide]
IC50 (human HSP60/10; [2]): > 100 µM
IC50 (human HSP60/10; [3]): > 100 µM
EC50 [1, 4]: > 100 µM
EC50 [1, 5]: > 100 µM

IC50 (human HSP60/10; [2]): > 100 µM
IC50 (human HSP60/10; [3]): > 100 µM
SMILES: CO[C@H]1/C=C/O[C@@]2(C)Oc3c(C)c(O)c4c(O)c(c(/C=N/N5CCN(C)CC5)c(O)c4c3C2=O)NC(=O)/C(C)=C\C=C\[C@H](C)[C@H](O)[C@@H](C)[C@@H](O)[C@@H](C)[C@H](OC(C)=O)[C@@H]1C [Rifampicin, rifampicin, reference compound]
EC50 [1, 4]: 7.8 µM
EC50 [1, 5]: 7.76 µM

SMILES: CN[C@H](CC(C)C)C(=O)N[C@H]1C(=O)N[C@@H](CC(N)=O)C(=O)N[C@H]2C(=O)N[C@H]3C(=O)N[C@H](C(=O)N[C@H](C(=O)O)c4cc(O)cc(O)c4-c4cc3ccc4O)[C@H](O)c3ccc(c(Cl)c3)Oc3cc2cc(c3O[C@@H]2O[C@H](CO)[C@@H](O)[C@H](O)[C@H]2O[C@H]2C[C@](C)(N)[C@H](O)[C@H](C)O2)Oc2ccc(cc2Cl)[C@H]1O [Vancomycin, vancomycin, reference compound]
IC50 (human HSP60/10): > 100 µM
HSP60/10-dMDH Refolding Assay log(IC50) (human HSP60/10; log(IC50) ± standard deviation, human HSP60/10-dMDH refolding assay): >2
EC50 ([1]; ATCC10145, read-out: Bacterial Proliferation EC50 P. aeruginosa): > 100 µM
EC50 ([1]; ATCC10145, read-out: log(EC50) Bacterial Proliferation Assay P. aeruginosa (converted)): > 100 µM
